Experimental data as given in paper PMC4657912, “Purification and Characterization of a Novel NAD(P)^+-Farnesol Dehydrogenase from Polygonum minus Leaves” (PLoS ONE, 2015).

Assays:
[1] = tested on: T1, P. minus farnesol dehydrogenase; NAD(P)+-dependent farnesol dehydrogenase; assay: NADH formation at […] nm, Lineweaver-Burk; type: biochemical, Persicaria minor; details: 100 mM glycine-NaOH pH 9.5, 35 C, read-out: K m value
T1 construct: native, purified from leaves; gene not cloned

[2] = tested on: T1, P. minus farnesol dehydrogenase; NAD(P)+-dependent farnesol dehydrogenase; assay: NADPH formation at […] nm, Lineweaver-Burk; type: biochemical, Persicaria minor; details: 1.0 mM trans,trans-farnesol (standard assay), 100 mM glycine-NaOH pH 9.5, 35 C; substrate range stated 0.5-1.5 mM, extrapolated; read-out: K m value
[3] = 1.0 mM NAD+ (standard assay), oxidation

Km [1, 3] [µM]	SMILES	also measured
770	C=C(C)[C@@H]1CC=C(CO)CC1 [(S)-Perillyl alcohol]	
710	C=C(C)C1CC=C(C)C(O)C1 (stereo not shown) [Carveol]	
1040	OC/C=C/c1ccccc1 [Cinnamyl alcohol]	
420	CC(C)=CCC/C(C)=C\CC/C(C)=C\CO [Cis, cis-farnesol]	
330	CC(C)=CCC/C(C)=C/CC/C(C)=C\CO [Cis, trans-farnesol]	
	CC(C)=CCC/C(C)=C/CO [Geraniol, (trans)-3,7-dimethyl-2,6-octadien-1-ol]	Km ([1]; 1.0 mM NAD+ (standard assay), oxidation, substrate range 0.5-1.5 mM, extrapolated): 12500 µM
	NC(=O)c1ccc[n+]([C@@H]2O[C@H](COP(=O)(O)OP(=O)(O)OC[C@H]3O[C@@H](n4cnc5c(N)ncnc54)[C@H](OP(=O)(O)O)[C@@H]3O)[C@@H](O)[C@H]2O)c1 [NADP^+]	Km [2]: 40 mM
	NC(=O)c1ccc[n+]([C@@H]2O[C@H](COP(=O)(O)OP(=O)(O)OC[C@H]3O[C@@H](n4cnc5c(N)ncnc54)[C@H](O)[C@@H]3O)[C@@H](O)[C@H]2O)c1 [NAD^+]	Km ([1]; 1.0 mM trans,trans-farnesol (standard assay)): 740 µM
170	CC(C)=CCC/C(C)=C/CC/C(C)=C/CO [Trans, trans-farnesol, trans,trans-3,7,11-trimethyl-2,6,10-dodecatrien-1-ol]	
1000	C=CC(C)(O)CCC=C(C)CCC=C(C)C (stereo not shown) [nerolidol]	
